Source: article PMC11882793 (Nature Communications, 2025)
No end group written: not given here. *: point of attachment. FITC = O=C1OC2(c3ccc(O)cc3Oc3cc(O)ccc32)c2ccc(NC(=S)*)cc21

How the values were obtained:
[1] = biological target: FITC-labeled peptide derived from the wild-type C-terminal sequence of SciP (C. crescentus); experiment: fluorescence polarisation
NTD of CcLon (aa. 1-206) = biological target: T1, NTD of CcLon (aa. 1-206) (Caulobacter vibrioides, UniProt P0CAW0); experiment: Fluorescence polarization, FITC-labeled degron peptides vs NTD; type: binding, C. crescentus; conditions: FP assay
T1 sequence (P0CAW0 1-206): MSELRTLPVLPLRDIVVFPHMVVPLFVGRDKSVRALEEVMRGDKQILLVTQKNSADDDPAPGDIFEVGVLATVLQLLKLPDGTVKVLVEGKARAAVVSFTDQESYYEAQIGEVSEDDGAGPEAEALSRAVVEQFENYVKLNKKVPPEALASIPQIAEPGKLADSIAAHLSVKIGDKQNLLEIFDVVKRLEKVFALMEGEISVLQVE

LarA-NTD complex = experiment: Fluorescence polarization, FITC-labeled degron peptides vs LarA-NTD complex; type: binding, C. crescentus; conditions: FP assay

Substance	Kd [1]	FP binding to NTD (in words) (NTD of CcLon (aa. 1-206))	FP binding to LarA-NTD complex (in words) (LarA-NTD complex)
LarA-NTD complex (from UniProt P0CAW0 1-206)	413 µM		
{FITC}-HEAAPASAH [pep-LarA-mut]		failed to bind	failed to bind
{FITC}-HELAPVSVH [pep-LarA-amidated]		no binding was observed	comparable to that of pep-LarA
{FITC}-QSADRHGAAGARTTRAQQYR [pep-SciP-mut]		failed to bind	failed to bind
